Among the test systems are HCT-116 colon; HOP-18 NSCLC; KM20L2 colon; SF-268 CNS; XF 498 CNS; DMS 273 small cell lung; SNB-78 CNS; MDA-MB-231 breast; PC-3 prostate.
Common to all, as to test: NCI anticancer screen, dose series, 48 h

SMILES strings stand for the structures. Where “and” joins values, the source holds several entries; their conditions need not be identical. Identical values can stand only once.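 Growth conditions: 96-well plates. Treatment: test compound, 48 hours, 5 concentrations. Analysis: linear interpolation between bracketing concentrations; unreached endpoints set to highest concentration. GI50 is the concentration that inhibits growth by half. TGI denotes the concentration required for complete inhibition of growth.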 Where a SMILES comes first, the peptide text is derived from it. [ ]: non-standard residue; d: D form. The star is where a group is joined. ξ: configuration not given here. NMeN = CN[C@@H](CC(N)=O)C(=O)O; NMeV = CN[C@H](C(=O)O)C(C)C; ξNMeV = CNC(C(=O)O)C(C)C; Boc = CC(C)(C)OC(=O)*; ξNMeA = CNC(C)C(=O)O

This note sets out measurements from PubChem BioAssay (NCI).

Take `Nc1nc(=S)[nH]c(C(=O)Nc2ccc(Cl)c(Cl)c2)c1-c1ccc(Cl)cc1`: the TGI in the test on HCT-116 colon, with HOP-18 NSCLC, in the test with KM20L2 colon, in the test with SF-268 CNS and in the test on XF 498 CNS was more than 100 µM throughout.

Turning to `COc1cc(C(=O)C/C(CCC(=O)Nc2ccc(Cl)cc2C)=N/NC(=O)C(N)=O)ccc1O`, the TGI in the test on DMS 273 small cell lung, in the test on HCT-116 colon, in the test on HOP-18 NSCLC, in the test with KM20L2 colon, with SF-268 CNS and with SNB-78 CNS was more than 100 µM in each case. The molecule also came in with a TGI in the test on XF 498 CNS of more than 100 µM.

On to `CCc1nc(N)nc(C(=O)NCCNC(=O)c2nc(N)nc(CC)c2C)c1C`, for which the TGI in the test with DMS 273 small cell lung, in the test with HCT-116 colon, in the test on HOP-18 NSCLC, in the test on KM20L2 colon, in the test with SF-268 CNS and in the test with SNB-78 CNS was more than 100 µM in each case. The molecule further gave a TGI with XF 498 CNS of more than 100 µM.

In the case of `CCC[CH2][Sn]([CH2]CCC)([O]C(=O)C(N)CSC)[O]C(=O)C(N)CSC` (stereo unspecified), the GI50 in the test with HCT-116 colon was 11.6 µM; in the test on HOP-18 NSCLC, 10.2 µM; in the test on KM20L2 colon, 18.6 µM; in the test on SF-268 CNS, 4.06 µM; in the test on SNB-78 CNS, 3.17 µM; in the test on XF 498 CNS it was 5.54 µM. The TGI in the test with HCT-116 colon was 24.7 µM; in the test on HOP-18 NSCLC it was 21.8 µM; in the test on KM20L2 colon, 53.4 µM; with SF-268 CNS, 11.3 µM; with SNB-78 CNS it was 9.64 µM; in the test with XF 498 CNS, 19 µM.

In the case of `CC(=O)/C(=C\C1=CCCO1)C(=O)Nc1ccccc1C`, the TGI with HCT-116 colon, in the test on HOP-18 NSCLC, in the test with SF-268 CNS, with SNB-78 CNS and in the test with XF 498 CNS was more than 100 µM in each case.

With `COC(=O)C12CC3CC(C1)CC(C(=O)OC)(C3)C2`, the TGI with DMS 273 small cell lung, with HCT-116 colon, in the test with HOP-18 NSCLC, in the test on KM20L2 colon, in the test with SF-268 CNS and in the test on SNB-78 CNS was more than 100 µM in each case. Also, in the test with XF 498 CNS, the TGI is more than 100 µM.

Regarding `CCOC(=O)NC(=O)c1cn(CCCOC(=O)CCCCCCCCCCC(=O)OCCCn2cc(C(=O)NC(=O)OCC)c(=O)n(C)c2=O)c(=O)n(C)c1=O`, the TGI in the test on DMS 273 small cell lung, in the test with HCT-116 colon, with HOP-18 NSCLC, with SF-268 CNS, in the test with SNB-78 CNS and with XF 498 CNS was more than 100 µM in each case.

In the case of `CCCCCCCCCCC(O)C1CCC(C(O)CCC(O)C2CCC(CCCCCCC[C@H](O)CC3=C[C@@H](C)OC3=O)O2)O1` (stereo partly specified), the TGI is more than 100 µM in the test with DMS 273 small cell lung; more than 53.4 µM in the test with HCT-116 colon; more than 100 µM in the test with HOP-18 NSCLC; more than 100 µM with KM20L2 colon; more than 100 µM in the test with SF-268 CNS; more than 100 µM with SNB-78 CNS. This molecule gave a TGI with XF 498 CNS of more than 100 µM. Moreover, the GI50 in the test with HCT-116 colon is 3.48 µM.

Take `CN(C)CC/C(=N\Nc1ccccc1)c1ccccc1`: the TGI with HCT-116 colon was 34.4 µM; in the test with HOP-18 NSCLC, more than 100 µM; in the test with SF-268 CNS, more than 100 µM; in the test on SNB-78 CNS it was 89.7 µM; in the test on XF 498 CNS it was 23.4 µM.

With `O=c1[nH]c2c3ccccc3ccc2c2cc3c(cc12)OCO3`, the TGI in the test with DMS 273 small cell lung, in the test on HCT-116 colon, in the test on HOP-18 NSCLC, with KM20L2 colon, with SF-268 CNS and in the test with SNB-78 CNS was more than 100 µM throughout. This molecule also returned a TGI in the test on XF 498 CNS of more than 100 µM.

For `CCN(CC)CCNC(=O)c1nn(C)c(=S)[nH]c1=S`, the TGI with DMS 273 small cell lung, in the test with HCT-116 colon, in the test on HOP-18 NSCLC, in the test with KM20L2 colon, with SNB-78 CNS and in the test with XF 498 CNS was more than 100 µM in each case.

As to `CCCCc1ccc(-n2c3nc(=O)n(C)c(=O)c-3nc3ccccc32)cc1`, the TGI was 26.4 µM in the test on DMS 273 small cell lung; 25.6 µM with HCT-116 colon; 22.7 µM in the test with HOP-18 NSCLC; 14.4 µM in the test with KM20L2 colon; 34.1 µM in the test on SF-268 CNS; 39 µM in the test on SNB-78 CNS. The TGI in the test with XF 498 CNS worked out at 32.4 µM.

As to `O=C1c2ccccc2C2(O)NC(=S)N(c3ccccc3)C12O` (stereo unspecified), the TGI in the test on HCT-116 colon, in the test on HOP-18 NSCLC, with KM20L2 colon, with SF-268 CNS, in the test on SNB-78 CNS and in the test with XF 498 CNS was more than 100 µM in each case.

With `COC(=O)C12C3C4C5C3(C#N)C1C5(C(=O)OC)C42C(=O)N(C(C)C)C(C)C` (stereo unspecified), the TGI in the test with DMS 273 small cell lung was more than 59.3 µM; in the test with HCT-116 colon, more than 100 µM; in the test on HOP-18 NSCLC, more than 100 µM; in the test on KM20L2 colon it was more than 100 µM; in the test on SF-268 CNS, more than 100 µM; in the test on SNB-78 CNS it was more than 100 µM. The molecule also showed a TGI in the test on XF 498 CNS of more than 100 µM.

As to `COC(=O)C(=O)C(C#N)c1ccc(CC#N)cc1` (stereo unspecified), the TGI in the test with DMS 273 small cell lung, in the test on HCT-116 colon, in the test with KM20L2 colon, with SF-268 CNS, in the test on SNB-78 CNS and in the test with XF 498 CNS was more than 100 µM each time.

Turning to `C[C@]12CC[C@H](OCCC#N)CC1=CC[C@@H]1C2CC[C@]2(C)/C(=N/OCCC#N)CCC12` (stereo partly specified), the TGI with DMS 273 small cell lung was more than 100 µM; in the test with HCT-116 colon it was more than 100 µM; with HOP-18 NSCLC, more than 100 µM; with KM20L2 colon, more than 100 µM; with SF-268 CNS it was more than 100 µM; with SNB-78 CNS, more than 90 µM. The molecule further yielded a TGI in the test with XF 498 CNS of 48.9 µM.

For the molecule `COC(=O)C12CC(c3ccccc31)C1C(=O)OC(=O)C12` (stereo unspecified), the TGI with DMS 273 small cell lung, in the test on HCT-116 colon, with KM20L2 colon, with SF-268 CNS, with SNB-78 CNS and in the test on XF 498 CNS was more than 100 µM each time.

As to `Cc1cccc(C)c1NC(=O)CCc1nnc2s/c(=C\c3ccc(Cl)cc3)c(=O)n12`, the TGI was more than 100 µM in the test on DMS 273 small cell lung; 57.2 µM with HCT-116 colon; more than 100 µM in the test on HOP-18 NSCLC; more than 100 µM with KM20L2 colon; more than 100 µM in the test with SF-268 CNS; more than 100 µM in the test on SNB-78 CNS. Besides, the TGI in the test with XF 498 CNS is more than 100 µM.

For the molecule `COC(=O)C(C)N(C)C(=O)[C@H](CC(N)=O)N(C)C(=O)[C@@H]1CCCN1C(=O)[C@H](C(C)C)N(C)C(=O)C(C(C)C)N(C)C(=O)[C@@H](NC(=O)OC(C)(C)C)C(C)C` (stereo partly specified) (Boc-V[ξNMeV][NMeV]P[NMeN][ξNMeA]-OMe), the TGI with DMS 273 small cell lung is more than 100 µM; in the test with HCT-116 colon it was 50 µM and > 100 µM; in the test with HOP-18 NSCLC, more than 100 µM; in the test on KM20L2 colon it was more than 100 µM; in the test with MDA-MB-231 breast it was more than 50 µM; with PC-3 prostate, 50 µM. Besides, the TGI in the test with SF-268 CNS, with SNB-78 CNS and with XF 498 CNS was more than 100 µM each time. In addition, the GI50 in the test with HCT-116 colon is 39.3 µM.
